Reference: patent publication US9434704B2, “Compositions and methods for the treatment of neurological degenerative disorders” (CELLIX BIO PRIVATE LIMITED, priority 2012, dated 2016)
Several values for one entry are separate records, joined by “and”; a condition that tells them apart may be missing. Equal entries are not always repeated.

Assays:
in vivo = settings: female, Wistar, rat, ip, 8 mg/kg
[1] = rat, in vivo, 8 mg/kg

Cmax (in vivo): 10200 ng/g and 3380 ng/mL
half-life (in vivo; t1/2 in brain): 13.2 h
half-life (in vivo; t1/2 in cervical SC): 13.2 h
half-life (in vivo; t1/2 in plasma): 11 h
half-life (in vivo; t1/2 in thoracic SC): 11 h
time to reach spinal cord (SC) ([1]; female, Wistar): ≤ 15 min
time of Cmax in SC [1]: 1.5 h
absorption after I.P. administration ([1]; ip): readily absorbed
time of Cmax in brain ([1]; ip): 0.7 h
time of Cmax in plasma ([1]; ip): 0.5 h
SMILES: CC(OC(=O)CCCC[C@]1(C)CCSS1)OC(=O)Nc1nc2ccc(OC(F)(F)F)cc2s1 (stereo partly shown) [Formula II (2-1)]
